Like-named read-outs stand apart in the source and are kept apart here.
How the values were obtained:
[1] = Synthesis tests of cocamidopropylamine oxide with candidate inhibitors: colour of the final product; assay type: physicochemical; details: additive 0,1% by weight on amido-amine
Experimental: (§1) To a three-neck flask of 1000 ml, demi-water and citric acid were added. The acid was added in order to keep the pH of the reaction mixture below 9. Subsequently, cocamidopropylamine and hydrogen peroxide were added. The reaction mixture was heated to a desired temperature of either 50 °C or 70 °C. Upon reaching the desired reaction temperature, sodium bicarbonate was added. The pH of the reaction mixture is maintained between 7,0 and 7,5. If necessary, NaOH is added.
(§2) In the examples described below, different additives were tested for their ability to inhibit the formation of nitrosamines. Each time, during the reaction, an amount of inhibitor was added which corresponds to 0,1% by weight of the amount of added amido-amine raw material.

[2] = for Content of nitrosamines: cocamidopropylamine oxide synthesis, additive 0,1% by weight on amido-amine; for inhibitory effect on the formation of nitrosamines: result in words, tertiary alkylamine oxide (cocamidopropylamine oxide) synthesis
Experimental: For the measurement, gas chromatography in combination with a thermal energy analyzer (GC-TEA) is used. In measurements using this technique, the so-called apparent total N-nitroso compounds (ATNC) are determined by a chemical denitrosation and detection of the released […] in µg/kg (ppb). This content is also determined by denitrosation of an N-nitrosodiisopropanolamine (NDiPLA) calibration standard.
as §1, §2
The nitrosamine content was determined with the aid of a chemical denitrosation technique and measurement with a thermal energy analyzer. The detection limit of the method used was 50 µg total content of N-nitroso compounds/kg.

Row | Colour ([1]; Temp 50 °C) [Apha] | Compound | Colour ([1]; Temp 70 °C) [Apha] | Content of nitrosamines ([2]; Temp 50 °C) [ppb] | Content of nitrosamines ([2]; Temp 70 °C) [ppb] | inhibitory effect on the formation of nitrosamines [2]
1 | 27 | O=C(O)CN(CCN(CC(=O)O)CC(=O)O)CC(=O)O [EDTA, ethylenediaminetetraacetic acid] | 37 | 660 | 1550 | insufficiently able to inhibit the formation of nitrosamines
2 | 27 | O=C(O)CN(CCN(CC(=O)O)CC(=O)O)CCN(CC(=O)O)CC(=O)O [DTPA Na, diethylene triamine pentaacetic acid] |  |  |  | 

Row | Compound | Colour ([1]; Temp 50 °C) [Apha] | Colour ([1]; Temp 70 °C) [Apha] | Content of nitrosamines ([2]; Temp 50 °C) [ppb] | Content of nitrosamines ([2]; Temp 70 °C) [ppb] | inhibitory effect on the formation of nitrosamines [2]
3 | O=P(O)(O)CN(CCN(CP(=O)(O)O)CP(=O)(O)O)CCN(CP(=O)(O)O)CP(=O)(O)O [DTPMP, diethylenetriamine penta(methylene phosphonic acid)] | 50 | 24 | 1637 | 765 | insufficiently able to inhibit the formation of nitrosamines

Source: EP3092214B1, “NITROSAMINE/NITRITE INHIBITION IN TERTIARY ALKYLAMINE OXIDE COMPOSITIONS” (EOC Surfactants N.V., priority 2014, dated 2015)
